This passage reports inhibition results from patent US10968178B2, “IP6K inhibitors” (TAKEDA PHARMACEUTICAL COMPANY LIMITED, priority 2017, dated 2021).

Holding throughout (format): biochemical
In assay [1] the target is T1, human IP6K1 (Homo sapiens, UniProt Q92551).
T1 construct: human IP6K1 (1-441) gene; GST; made in house; host or cells: Sf-9 insect cells
The experiment in a line: IP6K enzyme inhibitory assay (ADP-Glo Kinase Assay), human IP6K1. Particulars: compound concentration 0.1 μM; read-out: ADP-Glo method inhibitory rate (%) human IP6K1. The procedure, abridged: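 Inhibition of human IP6K1 was determined with Promega's ADP-Glo Kinase Assay in 384 well plates. Test compound diluted in assay buffer (20 mM HEPES (pH 7.5), 6 mM MgCl2, 0.01% Tween-20, 1 mM DTT) was added at 2 μL, then 2 μL of enzyme started the reaction for 60 min at room temperature. Next came 3 μL ADP-Glo solution for 30 min and 6 μL Kinase-Detection solution for 60 min. Luminescence was read on an Envision plate reader.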
On the technique in general: ADP-Glo first removes unused ATP, then detects ADP through luciferase.

Assay [2] has as its target T2, human IP6K2 (Homo sapiens, UniProt Q9UHH9).
T2 construct: human IP6K2 (1-426) gene; GST; made in house; host or cells: Sf-9 insect cells
T2 sequence (Q9UHH9 1-426): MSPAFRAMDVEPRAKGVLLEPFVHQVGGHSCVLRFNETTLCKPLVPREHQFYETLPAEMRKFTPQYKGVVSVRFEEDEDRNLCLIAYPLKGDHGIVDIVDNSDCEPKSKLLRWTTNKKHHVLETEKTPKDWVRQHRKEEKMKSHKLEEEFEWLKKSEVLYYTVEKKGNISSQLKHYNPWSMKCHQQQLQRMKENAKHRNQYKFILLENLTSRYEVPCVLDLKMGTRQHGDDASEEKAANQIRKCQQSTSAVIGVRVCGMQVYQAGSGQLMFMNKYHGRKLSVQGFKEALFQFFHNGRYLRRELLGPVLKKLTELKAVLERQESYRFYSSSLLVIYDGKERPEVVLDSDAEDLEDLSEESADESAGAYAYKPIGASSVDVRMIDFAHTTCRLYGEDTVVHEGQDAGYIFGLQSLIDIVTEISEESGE
The experiment in a line: IP6K enzyme inhibitory assay (ADP-Glo Kinase Assay), human IP6K2. Particulars: compound concentration 0.1 μM; read-out: ADP-Glo method inhibitory rate (%) human IP6K2. Summed up:
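The inhibitory activity against human IP6K2 was measured with Promega's ADP-Glo Kinase Assay in 384 well plates. Test compound, diluted in assay buffer (20 mM HEPES (pH 7.5), 6 mM MgCl2, 0.01% Tween-20, 1 mM DTT), was added at 2 μL. Adding 2 μL of diluted enzyme started the reaction, which ran for 60 min at room temperature. Next, 3 μL ADP-Glo solution (30 min) and 6 μL Kinase-Detection solution (60 min) were added, and luminescence was read on an Envision plate reader.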

Assay [3] addresses T3, human IP6K3 (Homo sapiens, UniProt Q96PC2).
T3 construct: human IP6K3 (1-410) gene; made in house; host or cells: BL21 (DE3) Escherichia coli
T3 sequence (Q96PC2 1-410): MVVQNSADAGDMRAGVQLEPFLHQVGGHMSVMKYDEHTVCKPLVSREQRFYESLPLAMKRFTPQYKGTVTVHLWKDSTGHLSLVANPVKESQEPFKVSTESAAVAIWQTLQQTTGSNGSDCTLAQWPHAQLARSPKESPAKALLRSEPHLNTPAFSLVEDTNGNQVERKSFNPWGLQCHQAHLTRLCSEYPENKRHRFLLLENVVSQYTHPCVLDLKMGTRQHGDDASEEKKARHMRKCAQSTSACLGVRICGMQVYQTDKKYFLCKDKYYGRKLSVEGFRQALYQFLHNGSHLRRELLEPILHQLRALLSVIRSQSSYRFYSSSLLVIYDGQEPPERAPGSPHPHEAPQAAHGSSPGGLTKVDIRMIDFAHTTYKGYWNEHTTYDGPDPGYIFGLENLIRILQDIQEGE
The experiment in a line: IP6K enzyme inhibitory assay (ADP-Glo Kinase Assay), human IP6K3. Particulars: compound concentration 0.1 μM; read-out: ADP-Glo method inhibitory rate (%) human IP6K3. Summed up:
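Recombinant human IP6K (IP6K3 residues 1-410, E. coli, Ni-NTA purified) incubated with compound in 20 mM HEPES pH 7.5, 6 mM MgCl2, 0.01% Tween-20, 1 mM DTT for 60 min at room temperature. ADP formed read as luminescence by ADP-Glo.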

Structures are written as SMILES.

T1 sequence (Q92551 whole entry): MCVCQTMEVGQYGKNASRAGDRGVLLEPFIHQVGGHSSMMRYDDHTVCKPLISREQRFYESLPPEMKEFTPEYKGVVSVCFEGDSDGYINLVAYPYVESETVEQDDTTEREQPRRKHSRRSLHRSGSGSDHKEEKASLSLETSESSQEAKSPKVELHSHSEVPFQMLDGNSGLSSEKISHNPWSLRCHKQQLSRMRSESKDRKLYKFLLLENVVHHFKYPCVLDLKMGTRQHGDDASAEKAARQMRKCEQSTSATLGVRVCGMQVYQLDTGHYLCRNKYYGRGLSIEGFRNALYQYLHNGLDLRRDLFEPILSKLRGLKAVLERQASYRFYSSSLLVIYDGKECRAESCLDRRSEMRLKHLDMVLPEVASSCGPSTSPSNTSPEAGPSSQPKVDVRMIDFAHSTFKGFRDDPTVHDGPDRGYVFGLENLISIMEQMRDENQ

As to `COc1ccc(O[C@H]2CC[C@@]3(CC2)C(=O)Nc2ccc(C(=O)O)cc23)cc1` [Example 49, (1r,4r)-4-(4-methoxyphenxoy)-2′-oxo-1′,2′-dihydrospiro[cyclohexane-1,3′-indole]-5′-carboxylic acid], the inhibition at 0.1 µM is 100% in assay [1], 99% in assay [2] and 100% in assay [3].

For the compound `Cc1cc(F)ccc1O[C@H]1CC[C@@]2(CC1)C(=O)Nc1ccc(C(=O)O)cc12` [Example 50, (1r,4r)-4-(4-fluoro-2-methylphenoxy)-2′-oxo-1′,2′-dihydrospiro[cyclohexane-1,3′-indole]-5′-carboxylic acid], the inhibition at 0.1 µM worked out at 101% in assay [1], 100% in assay [2] and 96% in assay [3].

Take `Cc1cc(O[C@H]2CC[C@@]3(CC2)C(=O)Nc2ccc(C(=O)O)cc23)ccc1F` [Example 51, (1r,4r)-4-(4-fluoro-3-methylphenoxy)-2′-oxo-1′,2′-dihydrospiro[cyclohexane-1,3′-indole]-5′-carboxylic acid]: the inhibition at 0.1 µM is 98% in assay [1], 97% in assay [2] and 96% in assay [3].

Consider `Cc1ccc(O[C@H]2CC[C@@]3(CC2)C(=O)Nc2ccc(C(=O)O)cc23)cc1F` [Example 52, (1r,4r)-4-(3-fluoro-4-methylphenoxy)-2′-oxo-1′,2′-dihydrospiro[cyclohexane-1,3′-indole]-5′-carboxylic acid], for which the inhibition at 0.1 µM in assay [1] is 99%; in assay [2], 100%; in assay [3], 96%.

`Cc1cccc(O[C@H]2CC[C@@]3(CC2)C(=O)Nc2ccc(C(=O)O)cc23)c1F` [Example 53, (1r,4r)-4-(2-fluoro-3-methylphenoxy)-2′-oxo-1′,2′-dihydrospiro[cyclohexane-1,3′-indole]-5′-carboxylic acid]: the inhibition at 0.1 µM was 96% in assay [1], 96% in assay [2] and 97% in assay [3].

On to `Cc1ccc(O[C@H]2CC[C@@]3(CC2)C(=O)Nc2ccc(C(=O)O)cc23)c(F)c1` [Example 54, (1r,4r)-4-(2-fluoro-4-methylphenoxy)-2′-oxo-1′,2′-dihydrospiro[cyclohexane-1,3′-indole]-5′-carboxylic acid], for which the inhibition at 0.1 µM amounted to 99% in assay [1], 100% in assay [2] and 101% in assay [3].

Regarding `O=C(O)c1ccc2c(c1)[C@]1(CC[C@@H](Oc3ccc(F)c(F)c3)CC1)C(=O)N2` [Example 55, (1r,4r)-4-(3,4-difluorophenoxy)-2′-oxo-1′,2′-dihydrospiro[cyclohexane-1,3′-indole]-5′-carboxylic acid], the inhibition at 0.1 µM was 96% in assay [1], 95% in assay [2] and 99% in assay [3].

Regarding `O=C(O)c1ccc2c(c1)[C@]1(CC[C@@H](Oc3cc(F)ccc3F)CC1)C(=O)N2` [Example 56, (1r,4r)-4-(2,5-difluorophenoxy)-2′-oxo-1′,2′-dihydrospiro[cyclohexane-1,3′-indole]-5′-carboxylic acid], the inhibition at 0.1 µM in assay [1] turned out to be 97%; in assay [2] it was 92%; in assay [3], 99%.

For the compound `O=C(O)c1ccc2c(c1)[C@]1(CC[C@@H](Oc3ccc(F)cc3F)CC1)C(=O)N2` [Example 57, (1r,4r)-4-(2,4-difluorophenoxy)-2′-oxo-1′,2′-dihydrospiro[cyclohexane-1,3′-indole]-5′-carboxylic acid], the values for the inhibition at 0.1 µM in assay [1], in assay [2] and in assay [3] were 99%, 97% and 100%, respectively.

For the compound `O=C(O)c1ccc2c(c1)[C@]1(CC[C@@H](Oc3cc(F)cc(F)c3)CC1)C(=O)N2` [Example 58, (1r,4r)-4-(3,5-difluorophenoxy)-2′-oxo-1′,2′-dihydrospiro[cyclohexane-1,3′-indole]-5′-carboxylic acid], the figures for the inhibition at 0.1 µM in assay [1], in assay [2] and in assay [3] were 72%, 83% and 90%, respectively.

`O=C(O)c1ccc2c(c1)[C@]1(CC[C@@H](Oc3cccc(F)c3F)CC1)C(=O)N2` [Example 59, (1r,4r)-4-(2,3-difluorophenoxy)-2′-oxo-1′,2′-dihydrospiro[cyclohexane-1,3′-indole]-5′-carboxylic acid]: the inhibition at 0.1 µM in assay [1] was 87%; in assay [2] it was 86%; in assay [3] it was 97%.

Turning to `N#Cc1cccc(O[C@H]2CC[C@@]3(CC2)C(=O)Nc2ccc(C(=O)O)cc23)c1F` [Example 60, (1r,4r)-4-(3-cyano-2-fluorophenoxy)-2′-oxo-1′,2′-dihydrospiro[cyclohexane-1,3′-indole]-5′-carboxylic acid], the inhibition at 0.1 µM in assay [1] amounted to 87%; in assay [2] it was 90%; in assay [3] it was 98%.

Consider `N#Cc1ccc(O[C@H]2CC[C@@]3(CC2)C(=O)Nc2ccc(C(=O)O)cc23)cc1F` [Example 61, (1r,4r)-4-(4-cyano-3-fluorophenoxy)-2′-oxo-1′,2′-dihydrospiro[cyclohexane-1,3′-indole]-5′-carboxylic acid], for which the inhibition at 0.1 µM came out at 100% in assay [1], 95% in assay [2] and 100% in assay [3].

For the compound `N#Cc1cccc(F)c1O[C@H]1CC[C@@]2(CC1)C(=O)Nc1ccc(C(=O)O)cc12` [Example 62, (1r,4r)-4-(2-cyano-6-fluorophenoxy)-2′-oxo-1′,2′-dihydrospiro[cyclohexane-1,3′-indole]-5′-carboxylic acid], the figures for the inhibition at 0.1 µM in assay [1], in assay [2] and in assay [3] were 95%, 91% and 99%, respectively.

`N#Cc1c(F)cccc1O[C@H]1CC[C@@]2(CC1)C(=O)Nc1ccc(C(=O)O)cc12` [Example 63, (1r,4r)-4-(2-cyano-3-fluorophenoxy)-2′-oxo-1′,2′-dihydrospiro[cyclohexane-1,3′-indole]-5′-carboxylic acid]: the inhibition at 0.1 µM in assay [1] is 69%; in assay [2], 87%; in assay [3], 96%.

As for `O=C(O)c1ccc2c(c1)[C@]1(CC[C@@H](Oc3cc(F)cc(Cl)c3)CC1)C(=O)N2` [Example 64, (1r,4r)-4-(3-chloro-5-fluorophenoxy)-2′-oxo-1′,2′-dihydrospiro[cyclohexane-1,3′-indole]-5′-carboxylic acid], the figures for the inhibition at 0.1 µM in assay [1], in assay [2] and in assay [3] were 80%, 93% and 94%, respectively.

Turning to `O=C(O)c1ccc2c(c1)[C@]1(CC[C@@H](Oc3cc(F)ccc3Cl)CC1)C(=O)N2` [Example 65, (1r,4r)-4-(2-chloro-5-fluorophenoxy)-2′-oxo-1′,2′-dihydrospiro[cyclohexane-1,3′-indole]-5′-carboxylic acid], the inhibition at 0.1 µM amounted to 93% in assay [1], 95% in assay [2] and 97% in assay [3].

As for `O=C(O)c1ccc2c(c1)[C@]1(CC[C@@H](Oc3ccc(Cl)cc3F)CC1)C(=O)N2` [Example 66, (1r,4r)-4-(4-chloro-2-fluorophenoxy)-2′-oxo-1′,2′-dihydrospiro[cyclohexane-1,3′-indole]-5′-carboxylic acid], the inhibition at 0.1 µM turned out to be 99% in assay [1], 100% in assay [2] and 96% in assay [3].
